Laboratory results from patent US20250108034A1, “EYE DROP FORMULATION” (priority 2021, published 2025).
One block for each compound: values may come before it.

Tests used:
[1] = test system: conjunctival and corneal surface of rabbit eyes; experiment: Ocular administration of cyclodextrins to rabbit eyes (irritation/tolerability); details: concentrations of 5 and 12.5%
[2] = Stability study (shelf-life) of ASP and ASP-CD complexes in physiological saline; type: physicochemical; details: for Shelf-life (t90%): physiological saline
Description: The determination of ASP concentration was performed with HPLC using an Agilent 1260 (Agilent Technologies, Santa Clara, USA). As stationary phase a Zorbax Eclipse© C18 column 100×4.6 mm, 5 μm (Phenomenex, Torrance, CA, USA) was applied. Isocratic elution with purified water and methanol 10:90 (v/v) was applied for 6 min at a flow rate of 1.0 mL/min at 25° C. 10 μL of the samples were injected to determine the ASP concentration. The chromatograms were detected at 255 nm using UV-VIS diode array detector. Data were evaluated using ChemStation B.04.03. Software (Agilent Technologies, Santa Clara, USA). […] Chemical stability of ASP and ASP-CD complexes was investigated in physiological saline at room condition (25±0.5° C.) and cold place condition (4±0.5° C.) for 5 days. Actual drug content was quantified using HPLC in predetermined time intervals to predict shelf-life of formulations.

[3] = Ex vivo corneal drug permeation with Raman mapping; type: in vitro ADME, porcine; details: after 15 min treatment, compared to 5 min treatment
Description: The ex vivo penetration of ASP was examined with HPLC and Raman microscopy. Freshly donated porcine eyes obtained from the slaughterhouse was placed on a sterile cotton wool bed moistened with physiological saline solution and kept in refrigerator box during the transportation. The porcine eye was placed into a Teflon cell, where the cornea was uncovered and surrounded by a Teflon ring to prevent the flow of eye drops. The cornea was instilled with 1000 μL of physiological saline solution and 50 μL of ASP-CD formulation was added to the covering saline solution, which can imitate physiological dilution caused by tear fluid and incubated at 35° C. […] ASP content in the residual solution, aqueous humour and cornea was determined with HPLC. The corneal retention of AS was calculated according to Eq. 2., whereas apparent permeability by using the following equation: […]
Raman mapping was carried out to examine the distribution of selected ASP-CD formulation and initial ASP on porcine cornea. […] For localization of permeated formulation, the Raman spectra of ASP was set as profile, whose frequency of occurrence was determined by measuring the relative intensity of ASP in the Raman maps with ImageJ 1.4 software (National Institutes of Health, Bethesda, MD, USA).

[4] = test system: conjunctival and corneal surface of rabbit eyes; details: in vivo

Compound: randomly substituted methyl-beta-cyclodextrin [RAMEB]
Ocular irritation [1]: irritating

Effect of BC on the shelf-life ([2]; 0.004 and 0.008% BC): no significant effect
Compound: benzalkonium chloride [BC]

Relative intensity of ASP in Raman maps [3]: increased
Shelf-life (t90%) ([2]; stored at 4° C.): 4.58 h
Shelf-life (t90%) ([2]; stored at 25° C.): 8.37 h
Compound: CCCCCCCCCCCCCCCC(=O)OC[C@H](O)[C@H]1OC(=O)C(O)=C1O [ASP, L-Ascorbic acid 6-palmitate]

Compound: CC(O)COC[C@H]1O[C@@H]2O[C@H]3[C@H](O)[C@@H](O)[C@@H](O[C@H]4[C@H](O)[C@@H](O)[C@@H](O[C@H]5[C@H](O)[C@@H](O)[C@@H](O[C@H]6[C@H](O)[C@@H](O)[C@@H](O[C@H]7[C@H](O)[C@@H](O)[C@@H](O[C@H]8[C@H](O)[C@@H](O)[C@@H](O[C@H]1[C@H](O)[C@H]2O)O[C@@H]8COCC(C)O)O[C@@H]7COCC(C)O)O[C@@H]6COCC(C)O)O[C@@H]5COCC(C)O)O[C@@H]4COCC(C)O)O[C@@H]3COCC(C)O (stereo partly drawn) [HPBCD, (2-Hydroxypropyl)-beta-cyclodextrin]
Ocular tolerability [4]: well tolerated
